This note sets out measurements from ChEMBL document CHEMBL1201862, “PubChem BioAssay data set” (2004).

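Exposure lasted 48 hours, with cells grown in 96-well plates and compounds tested at five concentrations. GI50 marks 50% less growth.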 Active and inactive are the calls of the source. Rule as the data show it: active = GI50 up to about 1.1 µM and inactive = higher. A value given as a limit tells only on which side of the number the result lay.

Among the test systems are RXF 631; M19-MEL; HOP-18; KM-20L2; DLD-1; XF498; LXFL 529; T47D; DMS-273.
Holding throughout (experiment): DTP human tumour cell line panel, 48 h

As for `N=C(N)Nc1nc2cc(N)ccc2o1`, the GI50 in the assay on RXF 631, with M19-MEL, with HOP-18, in the assay with KM-20L2 and in the assay on DLD-1 was > 100 µM (inactive) throughout.

Consider `CN(C)c1ccc(/C=C(\NC(=O)c2ccccc2)c2nc3cncnc3[nH]2)cc1`, for which the GI50 in the assay with RXF 631, in the assay with M19-MEL, in the assay with XF498, in the assay with KM-20L2, in the assay on DLD-1 and with LXFL 529 was > 100 µM (inactive) throughout.

Take `COC1C(O)CC(OC2CC(OC3CC(O[C@@H]4C(=O)c5c(cc6cc(OC7CC(OC8CC(O)C(O)C(C)O8)C(O)C(C)O7)c(C)c(O)c6c5O)C[C@H]4[C@H](OC)C(=O)[C@@H](O)[C@@H](C)O)OC(C)C3O)OC(C)C2O)OC1C` (stereo partly drawn): the GI50 in the assay on M19-MEL is 0.0109 µM (active); in the assay with XF498 it was < 0.01 µM (active); with HOP-18 it was 0.0211 µM (active); in the assay on T47D, < 0.01 µM (active); in the assay on KM-20L2, 0.0223 µM (active); in the assay with DLD-1 it was 0.177 µM (active). Also, the figures for the GI50 in the assay on DMS-273 and in the assay on LXFL 529 were < 0.0168 µM (active) and 0.0129 µM (active), respectively.

`COc1ccc(/C(=N/Nc2ccccc2)C(c2ccc(OC)cc2)C2OC(=O)c3ccccc32)cc1` (stereo not drawn): the GI50 in the assay on RXF 631 was > 100 µM (inactive); in the assay with XF498 it was > 100 µM (inactive); in the assay on KM-20L2 it was 36.6 µM (inactive); in the assay on DLD-1, > 10 µM (inactive); in the assay with DMS-273 it was > 100 µM (inactive).

Regarding `COC(=O)c1cc(Cl)ccc1NC(=O)c1ccc([N+](=O)[O-])cc1`, the GI50 with RXF 631 was 17.6 µM (inactive); with M19-MEL, 40.7 µM (inactive); in the assay with XF498, 14.4 µM (inactive); in the assay with KM-20L2, 21.3 µM (inactive); with DLD-1 it was 38.8 µM (inactive); with DMS-273 it was 21.6 µM (inactive). Also, the GI50 in the assay on LXFL 529 was 25.8 µM (inactive).

As to `C=C1C(=O)C23C(O)C1CCC2C12CO[C@]3(O)[C@@H](O)C1C(C)(C)CCC2O` (stereo partly drawn), the GI50 in the assay on RXF 631 is 13.7 µM (inactive); in the assay on M19-MEL, 10.7 µM (inactive); with XF498, 2.44 µM (inactive); in the assay with HOP-18, 11.7 µM (inactive); in the assay with KM-20L2, 16.1 µM (inactive); in the assay with DLD-1, 15.3 µM (inactive). The values for the GI50 with DMS-273 and in the assay on LXFL 529 were 14.7 µM (inactive) and 2.11 µM (inactive), respectively.

Regarding `Clc1ccc(C(c2ccccc2Cl)C(Cl)Cl)cc1` (stereo not drawn) [MITOTANE], the GI50 in the assay on RXF 631 was 17.9 µM (inactive); in the assay on M19-MEL it was 19.7 µM (inactive); in the assay on XF498 it was 15.7 µM (inactive); in the assay with HOP-18, 12.5 µM (inactive); in the assay on T47D, 1.64 µM (inactive); in the assay with KM-20L2, 16.9 µM (inactive). Also, the GI50 in the assay on DLD-1 is 19.5 µM (inactive); with DMS-273, 18.5 µM (inactive); in the assay on LXFL 529, 20.9 µM (inactive).

For `CCCCCCCCCCCCCP(=O)(O)NCC(N)=O`, the GI50 is 84.3 µM (inactive) with RXF 631; 80.7 µM (inactive) with M19-MEL; 64.6 µM (inactive) in the assay with XF498; 22 µM (inactive) in the assay with HOP-18; 98.6 µM (inactive) in the assay with KM-20L2; 43.9 µM (inactive) in the assay with DLD-1. Further, the GI50 in the assay with LXFL 529 was 54.3 µM (inactive).

With `Nc1nc[n+](Cc2ccccc2CCO)c2[nH]cnc12`, the GI50 with RXF 631, with M19-MEL, in the assay on XF498, in the assay on HOP-18, in the assay on KM-20L2 and in the assay on DMS-273 was > 100 µM (inactive) in each case. In the assay with LXFL 529, the GI50 was > 100 µM (inactive).

For the compound `S=C1NC(c2ccccc2)=NC(Cc2ccccc2)(c2ccccc2)N1c1ccccc1` (stereo not drawn), the GI50 with RXF 631 was > 100 µM (inactive); with M19-MEL, > 100 µM (inactive); in the assay with HOP-18, 97.1 µM (inactive); with KM-20L2, > 100 µM (inactive); in the assay with DLD-1, > 100 µM (inactive); with LXFL 529, > 100 µM (inactive).

Regarding `COc1c(CC(=O)c2ccccc2)c2ccccc2n1C(C)=O`, the GI50 in the assay with RXF 631, in the assay with M19-MEL, in the assay with XF498, in the assay on HOP-18, with KM-20L2 and with DLD-1 was > 100 µM (inactive) in each case. For the same compound, the GI50 in the assay on DMS-273 and in the assay with LXFL 529 was > 100 µM (inactive) in each case.

Consider `CC(C)(C)c1cc(C(O)(C(F)(F)F)C(F)(F)F)c2c(c1)C(C(F)(F)F)(C(F)(F)F)OC(c1ccccc1)(C(C)(C)C)N2` (stereo not drawn), for which the GI50 is 3.56 µM (inactive) in the assay with M19-MEL; 3.6 µM (inactive) in the assay on XF498; 0.515 µM (active) in the assay on HOP-18; 4.92 µM (inactive) in the assay with KM-20L2; 3.76 µM (inactive) in the assay on DLD-1; 3.61 µM (inactive) in the assay with DMS-273. For the same compound, the GI50 in the assay on LXFL 529 is 3.28 µM (inactive).

Consider `O=C(CCc1nnc2s/c(=C\c3ccc4c(c3)OCO4)c(=O)n12)Nc1cc(Cl)ccc1Cl`, for which the GI50 with RXF 631, in the assay with M19-MEL, with XF498, in the assay with HOP-18, in the assay on KM-20L2 and in the assay on DLD-1 was > 100 µM (inactive) in each case. For the same compound, the results for the GI50 in the assay with DMS-273 and in the assay on LXFL 529 were > 55.1 µM (inactive) and > 100 µM (inactive), respectively.

As to `O=C1C(Cl)C(c2ccc(Cl)cc2)N1n1cnc2ccccc2c1=O` (stereo not drawn), the GI50 is > 100 µM (inactive) in the assay with M19-MEL; 80.7 µM (inactive) with XF498; 57.5 µM (inactive) in the assay on HOP-18; > 100 µM (inactive) in the assay on KM-20L2; > 100 µM (inactive) with DLD-1; 30.3 µM (inactive) in the assay with DMS-273. Moreover, the GI50 in the assay with LXFL 529 is 72.4 µM (inactive).

As to `CN1CCN(C)C1c1cccc(C2N(C)CCN2C)c1`, the GI50 in the assay on RXF 631, with M19-MEL, in the assay on KM-20L2, with DLD-1, with DMS-273 and in the assay with LXFL 529 was > 100 µM (inactive) throughout.

`CNC(=O)NCCCCC(NC(=O)OCc1ccccc1)C(=O)OCc1ccccc1` (stereo not drawn): the GI50 was 23.6 µM (inactive) in the assay with RXF 631; 21.8 µM (inactive) in the assay with M19-MEL; 18.3 µM (inactive) in the assay with XF498; > 100 µM (inactive) in the assay with KM-20L2; 38.2 µM (inactive) in the assay on DLD-1; 48.8 µM (inactive) with DMS-273. Besides, the GI50 in the assay with LXFL 529 was 32.1 µM (inactive).

Consider `CC/C(=N/O)C(C)C(=O)CCC(=O)Nc1ccc(Cl)cc1` (stereo not drawn), for which the GI50 in the assay with M19-MEL, in the assay with XF498, with HOP-18, in the assay on KM-20L2, in the assay with DLD-1 and with DMS-273 was > 100 µM (inactive) throughout. Also, the GI50 in the assay on LXFL 529 was 54.3 µM (inactive).
